Key:
Type in all cases: cell-based
Salmonella [1] = assay: Recovery and detection of Salmonella from spices, herbs and flavourings, single step culture (FIGS. 9-13); conditions: spices/flavourings from the allium family; FIG. 13
Text: This was at fractional inoculation level (2-8 cfu). Accordingly a method with the ‘Spice neutraliser’ supplement is capable of detecting Salmonella from spice/herb/flavouring samples, even when the Salmonella is present at fractional levels.
This was at a high inoculation level (40-92 cfu).
The data provided in FIGS. 9A and 9B are derived from samples that were inoculated with a relatively high level of Salmonella (FIG. 9A—77-114cfu; FIG. 9B—38 cfu).
FIG. 10 provides data derived from fractional inoculation levels (2-8 cfu). In this instance the cells are cultured in the 4PYcq/Cefsulodin/Novobiocin supplement at half the concentration of that used previously, i.e. at a working concentration of 2.5 mg/L 4PYcq, 4 mg/L Cefsulodin and 5 mg/L Novobiocin.

Salmonella [2] = assay: Inclusivity: culture of pure Salmonella serovars in BPW with selective agent or supplement, ELISA detection (FIG. 4, FIG. 6); conditions: 5 mg/L 4PYcq; 20 hour culture; same inoculums of pure Salmonella cultures
Text: FIG. 4 illustrates inclusivity study data where multiple Salmonella serovars were artificially inoculated into either Buffered Peptone Water (BPW) on its own, or BPW enriched with either a selective cefsulodin, novobiocin, brilliant green lyophilised supplement run in the absence or presence of an oatmeal food matrix; or a selective cefsulodin, novobiocin, 4PYcq lyophilised supplement run in the absence of an oatmeal food matrix.
FIG. 6 illustrates inclusivity study data where multiple Salmonella serovars were artificially inoculated into BPW enriched with a selective cefsulodin, novobiocin, 4PYcq lyophilised supplement at low levels.

competing microflora = assay: Suppression of competing microflora in cultures of sample types; conditions: 5 mg/L; range of sample types, including dairy and probiotic foods

| SMILES | recovery of Salmonella (Salmonella [1]) | identification of Salmonella by ELISA after culture (Salmonella [2]) | suppression of competing microflora (competing microflora) |
| --- | --- | --- | --- |
| O=S([O-])[O-].[K+].[K+] [potassium salt component, potassium sulphite] | sufficient for recovery of Salmonella | – | – |
| CC(C)(C)c1cc(/C=N/N=C(\N)c2ccncc2)c(O)c(C(C)(C)C)c1 [4PYcq] | – | positive identification of the presence of Salmonella | sufficient suppression of competing microflora |

Reference: US20220002663A1, “SELECTIVE SALMONELLA OR E. COLI CULTIVATION METHOD, COMPOSITIONS AND USES” (SOLUS SCIENTIFIC SOLUTIONS LTD, priority 2018, published 2022)
